Source: patent publication EP1691802B1, “METHODS FOR THE AMELIORATION OF ENVIRONMENTAL OXIDANT STRESS AND THE REGULATION OF BENEFICIAL GENES” (The Ester C Company, priority 2003, dated 2005)

Test system: white blood cells
Parameters: species or system human
Conditions: in vivo, po
Method: Three vitamin C preparations and a placebo were tested to determine white blood cell bioavailability and pharmacokinetics in a double-blind, randomized, crossover study in human subjects. The three vitamin C and placebo compositions were • "Test A": ascorbic acid USP • "Test B": a mineral ascorbate (calcium ascorbate) + vitamin C metabolites (principally calcium threonate), in which the metabolites are produced in situ by a process such as disclosed in US Patent 4,822,816 • "Test C": a mineral ascorbate (calcium ascorbate) + vitamin C metabolites (calcium threonate), manufactured by adding calcium threonate to calcium ascorbate. • "Test D": placebo All three vitamin C compositions were standardized to 1000mg vitamin C equivalent per dose tablets.
A total of 15 subjects (all male between the ages of 21 and 50) were divided into three groups of five and were entered into a four-way crossover design study to minimize inter-subject variability, i.e., in which the subjects act as their own controls. […]
Vitamin C levels of the urine, plasma and white blood cells were determined by HPLC. The areas under the curve (AUC) for the ascorbic acid levels detected in white cells, plasma and urine was determined for each group using the trapezoidal rule (Selby, 1979). The data and the standard deviation was analyzed using repeated-measures analysis of variance ([…]). […]

**Q.** Which “levels of white cell vitamin C in smokers” value does the source give for O=C1O[C@H]([C@@H](O)CO)C(O)=C1O [Test A, ascorbic acid] here?
**A.** lowest levels
